In data set [1] the target is T1, isoMnSOD (Mus musculus, UniProt P09671, DEL77-115).
T1 construct: Mitochondrial pellets were lysed in 1% CHAPS detergent; from tissue; host or cells: mouse cerebellum mitochondria
T1 sequence (P09671 with tags, fused parts or gaps DEL77-115): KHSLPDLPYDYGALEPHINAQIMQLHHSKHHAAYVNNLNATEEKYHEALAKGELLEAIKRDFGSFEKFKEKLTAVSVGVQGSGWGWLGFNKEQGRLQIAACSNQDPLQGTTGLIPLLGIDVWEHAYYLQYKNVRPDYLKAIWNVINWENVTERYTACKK
The experiment in a line: isoMnSOD peroxidative activity, cerebellum mitochondrial extracts on nitrocellulose strips (Example 20). Format: biochemical. The settings on record: 1 μM of compound, 30 min at room temperature; cerebellum of 4 week mice; 1 mM hydrogen peroxide, luminol; FIG. 7. Here is the method:
Protein extracts containing isoMnSOD were prepared from cerebellum from 4 week mice by first forming a liquid nitrogen powder, resuspended with five volumes of ice-cold lysis buffer (in mM: 20 HEPES-KOH, pH 7.5, 10 KCl, 1.5 MgCl2, 1 DTT, 1 EDTA, 1 EGTA, and 0.1 PMSF) containing 70 mM mannitol and 250 mM sucrose and homogenizing with a Dounce homogenizer. Extract was centrifuged at 750 g for 10 min at 4° C. and the supernatant was then centrifuged at 10,000 g for 15 min at 4° C. to pellet the mitochondrial pellet, which was then stored frozen. Mitochondrial pellets were lysed in 1% CHAPS detergent containing 50 mM Tris-Cl, pH 8.0, 500 mM NaCl and then loaded onto a native 5% polyacrylamide gel. Protein concentration was measured by using the Bradford protein assay kit. After transfer to nitrocellulose, nitrocellulose strips were incubated with 1 μM of compound in 50 mM Tris-HCl, 50 mM NaCl, 5 mM EDTA, pH 8.0 for 30 min at room temperature, then washed extensively with incubation buffer alone. The peroxidative activity of isoMnSOD was measured using 100 of Femtomole luminol (Pierce) containing 1 mM hydrogen peroxide per nitrocellulose strip and exposed to x-ray film.

Data set [2] has as its system AMP kinase phosphorylation at Thr172. The experiment in a line: Doxorubicin-induced activation of AMP kinase in heart explants, western immunoblot (Example 22). The settings on record: rat heart explants, 1 mM doxorubicin overnight; FIG. 9 Lane 2. Format: cell-based. Here is the method: Hearts from 4 week rats were excised and minced without trypsin in 50:50 medium M199:MCDB 10% FBA containing 5 mM Creatine, 2 mM L-carnitine and 5 mM taurine. Explants were incubated overnight at 37° C. in a 5% CO2 incubator untreated (Lane 1), with 1 mM doxorubicin (Lane 2), and with 1 mM doxorubicin and 4 μM 2-(3,4-dihydroxy-phenyl)-N-heptadec-8-enyl-acetamide (IV) (Lane 3). Explants were frozen at −70° C., liquid nitrogen powders were prepared and lysed and denatured in 2% SDS with 5% BME with boiling for 5 min. Protein extracts were examined by western immunoblotting using a rabbit monoclonal recognizing Phospho-AMP Kinase-α (Thr172) (CellSignal).
The AMP kinase was activated by an elevated AMP(high)/ATP(low) ratio due to cellular and environmental stress, such as heat shock, hypoxia and ischemia. Elevated AMP/ATP ratio and activation of AMPK by phosphorylation at Thr172 can also occur by uncoupling mitochondrial oxidative phosphorylation from respiration with oligomycin and thereby loss of mitochondrial ATP synthesis.
A general note: A western blot detects proteins with antibodies after separation by electrophoresis.

The test system of data set [3] is altMnSODreport reporter expression. The experiment in a line: Reporter gene system (altMnSODreport) to analyze compounds for toxicity (Example 17). The settings on record: cells comprising the reporter gene system; written in present tense. Format: cell-based. An excerpt:
The test reporter system utilizes a recombinant DNA construct that contains an in frame fusion of a genomic fragment spanning MnSOD Exon 2 to Exon 4, but which also harbors a mutant MnSOD Exon 3, (i.e. frameshift mutation), to a B-galactosidase gene, or Green Fluorescence Protein (“altMnSODreport”). Alternative splicing and skipping of MnSOD (coding) Exon 3 will result in a fusion protein comprising a short stretch of MnSOD E2 and E4 coding sequences N-terminal to a reporter protein; the MnSODE2E4 amino acid sequence is 20 amino acids and should not interfere with the expression of the reporter. […]
Breast cancer cell line, MDA-MB-435, Her-2/neu over-expressing (ATCC), fibroblast cells lines NIH3T3 and B104, which are NIH3T3 cells transfected with the rat ErbB2/Her2 oncogene, and normal primary cells (Clonetics; rat cardiomyocytes, donated by Kathryn Maschhoff, MD PhD, Neonatology, University of Pennsylvania) are treated with doxorubicin alone and in combination with the rat ErbB2/Her2 17.6.4 monoclonal antibody, which downregulates the human and rat Her2 receptor (Zhang et al., 1999) (Oncogene), and Herceptin™ (Genentech). It is also determined if the Her2 mAbs induces isoMnSOD expression in untransfected cells and cells transfected with altMnSODreport. […]

Data set [4] has as its system isoMnSOD expression. The data set can be described thus: Doxorubicin induction of isoMnSOD expression in adult heart explants, Western Blot (Example 9). Format: cell-based, rat. The settings on record: 3 days, 0.1 nM to 1.0 μM Doxorubicin in AdvDMEM 2% FBS, FIG. 3.
Experimental: Briefly, after rats (5 weeks old) were killed by decapitation, the hearts were aseptically excised and residual blood was removed. The heart was perfused in Joklik's medium (containing Joklik's minimal essential medium, 25 mmol/L glutamic acid, 30 mmol/L taurine, and 1 mmol/L adenosine) without recirculation on a modified Langendorff apparatus for approximately 10 minutes at 37° C. The perfusion was then continued for 30 minutes at the same temperature, with recirculation in Joklik's medium containing collagenase type II (100 U/mL). After perfusion, the ventricles were cut into small pieces and tritulated in 0.05% Trypsin/EDTA for 10 min. Cardiac explants were cultured overnight on laminin-coated (20 μg per well) 35-mm six-well plates in medium 199 containing 5% FBS, 5 mM creatine, 2 mM L-carnitine, and 5 mM taurine. Explants were treated with doxorubicin (Sigma) shortly after plating for 24 hrs at 1 mM.
In data set [5] the target is T2, MnSOD-Exon3-deleted isoform (isoMnSOD) (Homo sapiens, UniProt P04179).
T2 sequence (P04179 25-183 isoform P04179-2 limits assumed): T1 sequence (P09671 with tags, fused parts or gaps DEL77-115) with A40V, H46Q, E66D, V75A, Q93R, R95H, S102P, T155M
The experiment in a line: Detection of inhibitors bound to isoMnSOD by combined immunoprecipitation/western blot (Example 13). Format: binding. The settings on record: immunoprecipitation with anti-dopamine or anti-serotonin antibody, isoMnSOD detected; FIG. 2A, 2B. Here is the method: Covalent modification of the MnSOD-Exon3-deleted isoform was measured by a combined immunoprecipitation/western blot analysis. Immunoblots for detecting AA-DA, EPA-DA, DHA-DA, C18:4(ω-3)-DA adducts were performed using anti-dopamine rabbit polyclonal (Chemicon) and anti-serotonin goat polyclonal antibodies (ImmunoStar), respectively. After immunoprecipitating using an antibody against the inhibitor, isoMnSOD was detected as described above.

The subject of data set [6] is isoMnSOD. The experiment in a line: Inhibition of pro-oxidant activity of isoMnSOD, at least one of the assays of the Examples. The conditions noted are these: according to at least one of the assays provided in the Examples.
Data set [7] relates to mitochondrial peroxidase activity (isoMnSOD). The data set can be described thus: Peroxidative assay (ROS-activity blot) of mitochondrial extracts from treated pancreatic explants (Example 12). Format: cell-based, pig. The conditions noted are these: pancreatic explant cultured 1 hr at 37° C. with equal volume of 2 μM compound, FIG. 1. Here is the method: F10 medium was used throughout the procedure. Pancreas (8 grams) from a 3 kilo pig was minced, washed twice, and 1 g of tissue was resuspended in 5 ml of F10 medium. […] Explants were stored frozen at −70° C. Tissue was homogenized in Buffer A at 4° C. and mitochondria was isolated by differential centrifugation and stored frozen at −70° C. Peroxidative assay of native mitochondrial extracts analyzed by the ROS-activity blot.

For data set [8], the system named is isoMnSOD. The experiment in a line: Drug inhibition method: peroxidative activity of isoMnSOD on PVDF strips (Example 4). The conditions noted are these: 1 μM test compound in TBS, 30 minutes; pancreatic mitochondria native extracts on PVDF; 1 mM H2O2, luminol; FIG. 4.
Experimental: Each test compound was prepared by mixing 5 μL of a 1 mM test compound stock solution in ethanol with 5 μL of 0.1 M KOH, followed by the addition of 5 ml of TBS for a final concentration of 1 μM test compound. Equal amounts of native protein extracts from pancreatic mitochondria (obtained according to the protocol of Example 5) were loaded in separate wells and resolved in a 7% PAGE gel without SDS, electrotransferred to PVDF and divided into strips. Each PVDF strip was incubated with 1 μM of test compound in TBS for 30 minutes, washed twice in TBS for 20 minutes, and the peroxidative activity of isoMnSOD was measured by incubation of each strip with 1 mM H2O2 in 0.4 ml of the luminol solution contained within the Femtomole chemiluminescence assay kit (Pierce) and exposed to x-ray film (FIG. 4).
All procedures were carried out at 4° C. Mitochondria were obtained from a liquid nitrogen powder of one pig pancreas (˜8 g), which was resuspended in 15 ml of buffer A containing following protease inhibitors: 1 μg/ml aprotinin, 1 μg/ml pepstatin A, 1 μg/ml chymostatin A, 2 μg/ml leupeptin, 2 μM benzamide hydrochloride, and 1 μM phenylmethylsulfonyl fluoride. Tissue was broken with a Potter homogenizer and the homogenate was centrifuged for 10 min at 800 g to remove cell debris. The supernatant was centrifuged at 10,000 g from 15 min to recover mitochondria. The mitochondrial pellet was washed twice with a hand held Dounce homogenizer and mitochondria were stored frozen. Mitochondria were lysed by slowly adding 1 ml of M-Per (Pierce) containing 1/10 vol 5M NaCl and 1/10 vol Buffer A. The mitochondrial lysate was subsequently clarified by centrifugation for 10 min at 2000 g.

Positions count from the first letter of the chain named.

On to `CCCCCCCC/C=C\CCCCCCCNC(=O)Cc1cc(O)ccc1O` [2-(2,5-dihydroxy-phenyl)-N-heptadec-8-enyl-acetamide], for which, in data set [1], the Inhibition result is recorded as “yes”.
On to `COc1cccc2c1C(=O)c1c(O)c3c(c(O)c1C2=O)C[C@@](O)(C(=O)CO)C[C@@H]3O[C@H]1C[C@H](N)[C@H](O)[C@H](C)O1` [Doxorubicin], for which the “Activation of AMP kinase by phosphorylation at Thr172” value in data set [2] is on record as “Activation”. In addition, the “expression of altMnSOD report” value in data set [3] was “causes an increase”. For the same molecule, the isoMnSOD expression entry in data set [4] is “induced isoMnSOD expression”.
`COC1=C(OC)C(=O)C(CCCCCCCCCCO)=C(C)C1=O` [Idebenone]: the Inhibition result in data set [1] is “no”.
`CCCCC/C=C\C/C=C\C/C=C\C/C=C\CCCC(=O)NCCc1c[nH]c2ccc(O)cc12` [arachidonoyl-serotonin, arachidonoyl serotonin]: in data set [5], the “binding to isoMnSOD (covalent modification)” value (from here on “binding to isoMnSOD”) is on record as “able to bind to isoMnSOD”. Further, the “inhibition of pro-oxidant activity of isoMnSOD” value in data set [6] is given as “inhibit pro-oxidant activity of isoMnSOD”. Further, the “inhibition of mitochondrial peroxidase activity” value in data set [7] was “inhibited the mitochondrial peroxidase activity”.
Regarding `CC/C=C\C/C=C\C/C=C\C/C=C\C/C=C\C/C=C\CCC(=O)NCCc1ccc(O)c(O)c1` [docosahexaenoyl (DHA)-dopamine, docosahexaenoyl dopamine], in data set [8], the “inhibition of peroxidative activity of isoMnSOD” value is “inhibit peroxidative activity more significantly than the other compounds”. Also, in data set [5], the “binding to isoMnSOD” value was “able to bind to isoMnSOD”. The “inhibition of pro-oxidant activity of isoMnSOD” value in data set [6] is recorded as “inhibit pro-oxidant activity of isoMnSOD”. In addition, the “inhibition of mitochondrial peroxidase activity” value in data set [7] is “inhibited the mitochondrial peroxidase activity”.
Take `CC/C=C\C/C=C\C/C=C\C/C=C\C/C=C\CCCC(=O)NCCc1ccc(O)c(O)c1` [eicosapentaenoyl (EPA)-dopamine, eicosapentaenoyl dopamine]: in data set [8], the “inhibition of peroxidative activity of isoMnSOD” value is listed as “inhibit peroxidative activity more significantly than the other compounds”. In addition, the “inhibition of pro-oxidant activity of isoMnSOD” value in data set [6] was “inhibit pro-oxidant activity of isoMnSOD”. Further, the “inhibition of mitochondrial peroxidase activity” value in data set [7] was “did not inhibit peroxidase activity to the same effect”.
Turning to Arachidonic acid-biotinimide, the Inhibition entry in data set [1] is reported as “yes”.
C18:4(ω-3)-dopamine: in data set [8], the “inhibition of peroxidative activity of isoMnSOD” value is “inhibit peroxidative activity more significantly than the other compounds”. In data set [5], the “binding to isoMnSOD” value was “able to bind to isoMnSOD”. Moreover, the “inhibition of pro-oxidant activity of isoMnSOD” value in data set [6] is reported as “inhibit pro-oxidant activity of isoMnSOD”. In addition, in data set [7], the “inhibition of mitochondrial peroxidase activity” value is listed as “inhibited the mitochondrial peroxidase activity”.
Take Prostaglandin A1-biotinimide: the Inhibition result in data set [1] is reported as “yes”.

The values are drawn from patent publication US8426644B2, “Compositions and methods for inhibiting an isoform of human manganese superoxide dismutase” (MitoTek, LLC, priority 2005, dated 2013).
